Experimental findings from PubChem BioAssay (NCI) are described below.

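Interpolation was linear, between the two tested concentrations surrounding the appropriate level; five concentrations were tested over 48 hours in 96-well plates. At the TGI there is no net growth.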

One assay deals with LOX IMVI melanoma. Put plainly: DTP human tumour cell line panel, 48 h.
What is called TGI is the concentration at which net growth stops. `CC(C)CC(N)C(=O)OCN1C(=O)C2C3C=CC(C2C1=O)C1C2C(=O)N(COC(=O)C(N)CC(C)C)C(=O)C2C31` (stereo not drawn) came in with a TGI greater than 58.1 µM.
`CC(C)(C)C(=O)C(CC(=O)c1ccccc1)C(=O)C(C)(C)C` yielded a TGI greater than 100 µM.
In turn, `COC(=O)c1cc(CC(C)C)c2c(c1)[nH]c1ccccc12` returned a TGI greater than 100 µM.
For `C[N+](C)(C)CC(=O)N/N=c1\cc(C(=O)Nc2ccc(N=O)cc2C#N)oc2cc(O)ccc12`, the TGI is greater than 100 µM.
On the same count and under the same terms, to `COc1ccc(/C(=C/n2ccnc2)C(=O)c2ccc(OC)c(OC)c2)cc1` belongs greater than 100 µM; to `CC(C)C(Sc1nc(-c2ccccc2)c(-c2ccccc2)[nH]1)C(=O)NNC(=S)Nc1ccccc1` (stereo not drawn), 29.3 µM; to `COC1O[C@H]2CCN(C(=O)OCc3ccccc3)[C@H]2[C@H]1OCc1ccccc1` (stereo partly drawn), greater than 100 µM.
The molecule `CC12CC(c3ccccc3O1)C(C(=O)Nc1ccc(F)cc1)C(=O)N2` (stereo not drawn) gave a TGI greater than 100 µM.
Molecule `COc1ccc(C2C(Cl)C(=O)N2NC(=O)c2ccc(NC(C)=O)cc2)cc1` (stereo not drawn) showed a concentration for total growth inhibition (TGI) greater than 100 µM.
Still for that read-out and setting: for `COc1ccc(-c2c(C#N)c(N)n(C3OC(CO)C(O)C(O)C3O)c(=S)c2C#N)cc1` (stereo not drawn) the value was greater than 100 µM; for `c1ccc(C[P+]2(c3ccccc3)c3ccccc3-c3ccccc32)cc1`, greater than 100 µM; for `Cc1c(Cl)cccc1NC(=O)C(=O)C1C(=O)CC(C)(C)CC1=O`, greater than 100 µM.
`O=C1O[C@@H](c2ccccc2)C[C@@H]1CN1CCOCC1`: the TGI is greater than 100 µM.
`COc1ccc2nc(-c3ccc(OCc4ccccc4)cc3)ccc2c1`: the concentration for total growth inhibition (TGI) was greater than 100 µM.
Molecule `COC1(C)CC2N(C(=O)c3ccccc3)N=C(c3ccccc3)CC2(C)O1` (stereo not drawn) showed a TGI greater than 100 µM.
As for `O=C1CC(C(O)CO)CC(=O)N1` (stereo not drawn), the TGI was greater than 100 µM.
`Cc1c(Cl)ccc2c(=O)c3cccc(CC(=O)O)c3oc12` showed a TGI greater than 100 µM.
Turning to `C/C(=N\NC(=S)NC(C)C)c1nc2ncccc2[nH]1`, the concentration for total growth inhibition (TGI) is greater than 100 µM.
`CCOC(=O)C(OCC1CC=CCC1)Sc1ccccc1` (stereo not drawn) returned a TGI greater than 100 µM.
As for `O=C(NS(=O)(=O)Nc1ccc(Cl)cc1)OCc1ccc(Cl)cc1Cl`, the TGI worked out at 57.3 µM.

The subject of another assay is K-562 leukemia. Put plainly: DTP human tumour cell line panel, 48 h.
`Cc1ccc2c(c1)nc(N)n[n+]2[O-]`: the TGI was greater than 100 µM.
For the molecule `Cc1cn(C2CC(N)C(CN)O2)c(=O)[nH]c1=O` (stereo not drawn), the TGI was greater than 100 µM.
On the same count and under the same terms, to `Nc1nc2ncc(SCc3ccc(C(=O)NC(CCC(=O)O)C(=O)O)cc3)cc2c(=O)[nH]1` (stereo not drawn) belongs greater than 100 µM; to `CC(C)CC(N)C(=O)OCN1C(=O)C2C3C=CC(C2C1=O)C1C2C(=O)N(COC(=O)C(N)CC(C)C)C(=O)C2C31` (stereo not drawn), greater than 100 µM; to `CC(C)(C)C(=O)C(CC(=O)c1ccccc1)C(=O)C(C)(C)C`, greater than 100 µM.
`COC(=O)c1cc(CC(C)C)c2c(c1)[nH]c1ccccc12`: the TGI is greater than 100 µM.
Molecule `C[N+](C)(C)CC(=O)N/N=c1\cc(C(=O)Nc2ccc(N=O)cc2C#N)oc2cc(O)ccc12` registered a concentration for total growth inhibition (TGI) greater than 100 µM.
The same measure, in the same setting: for `N#CCCN(c1ccc(C=Nc2cccc([N+](=O)[O-])c2)cc1)S(=O)(=O)c1ccccc1` the value was greater than 100 µM; for `COc1ccc(/C(=C/n2ccnc2)C(=O)c2ccc(OC)c(OC)c2)cc1`, greater than 100 µM; for `O=C1CC2(C[C@@H]3CCCCCCCCC[C@@H](C3)C2)N1` (stereo partly drawn), 55.1 µM.
For `COC1O[C@H]2CCN(C(=O)OCc3ccccc3)[C@H]2[C@H]1OCc1ccccc1` (stereo partly drawn), the TGI was greater than 100 µM.
On the same count and under the same terms, for `CC12CC(c3ccccc3O1)C(C(=O)Nc1ccc(F)cc1)C(=O)N2` (stereo not drawn) the value was greater than 100 µM.
For `O=c1c2c3ccccc3[nH]c2c2cccc3c2n1CCC3`, the TGI was greater than 100 µM.
Molecule `COc1ccc(C2C(Cl)C(=O)N2NC(=O)c2ccc(NC(C)=O)cc2)cc1` (stereo not drawn) displayed a TGI greater than 100 µM.
On the same count and under the same terms, for `COc1ccc(-c2c(C#N)c(N)n(C3OC(CO)C(O)C(O)C3O)c(=S)c2C#N)cc1` (stereo not drawn) the value was greater than 100 µM; for `c1ccc(C[P+]2(c3ccccc3)c3ccccc3-c3ccccc32)cc1`, greater than 100 µM; for `Cc1c(Cl)cccc1NC(=O)C(=O)C1C(=O)CC(C)(C)CC1=O`, greater than 100 µM.
Take `O=C1O[C@@H](c2ccccc2)C[C@@H]1CN1CCOCC1`: the TGI was greater than 100 µM.
Regarding `COc1ccc2nc(-c3ccc(OCc4ccccc4)cc3)ccc2c1`, the TGI was greater than 100 µM.
Consider `CCOc1ccc(N/C(=C(/C(Cl)=C(/Cl)NCCN)[N+](=O)[O-])n2nnc3ccccc32)cc1`, for which the concentration for total growth inhibition (TGI) is greater than 100 µM.
On to `COC1(C)CC2N(C(=O)c3ccccc3)N=C(c3ccccc3)CC2(C)O1` (stereo not drawn), for which the TGI is greater than 100 µM.
Same read-out and setting: to `O=C1CC(C(O)CO)CC(=O)N1` (stereo not drawn) belongs greater than 100 µM.
On to `Cc1c(Cl)ccc2c(=O)c3cccc(CC(=O)O)c3oc12`, for which the concentration for total growth inhibition (TGI) was greater than 100 µM.
Consider `C/C(=N\NC(=S)NC(C)C)c1nc2ncccc2[nH]1`, for which the TGI was greater than 100 µM.
For the molecule `Nc1ccccc1Nc1ccccc1C(=O)[O-].Nc1ccccc1Nc1ccccc1C(=O)[O-].[Cu+2]`, the TGI was greater than 100 µM.
`CCOC(=O)C(OCC1CC=CCC1)Sc1ccccc1` (stereo not drawn) gave a TGI greater than 100 µM.
`O=C(NS(=O)(=O)Nc1ccc(Cl)cc1)OCc1ccc(Cl)cc1Cl` returned a TGI greater than 100 µM.

The subject of the next assay is RXF 393 renal. In words: DTP human tumour cell line panel, 48 h.
On to `Cc1cn(C2CC(N)C(CN)O2)c(=O)[nH]c1=O` (stereo not drawn), for which the TGI is greater than 100 µM.
In the case of `CC(C)CC(N)C(=O)OCN1C(=O)C2C3C=CC(C2C1=O)C1C2C(=O)N(COC(=O)C(N)CC(C)C)C(=O)C2C31` (stereo not drawn), the TGI is greater than 100 µM.
`C[N+](C)(C)CC(=O)N/N=c1\cc(C(=O)Nc2ccc(N=O)cc2C#N)oc2cc(O)ccc12`: the TGI was greater than 100 µM.
On to `O=C1CC2(C[C@@H]3CCCCCCCCC[C@@H](C3)C2)N1` (stereo partly drawn), for which the TGI worked out at 30.9 µM.
`COC1O[C@H]2CCN(C(=O)OCc3ccccc3)[C@H]2[C@H]1OCc1ccccc1` (stereo partly drawn): the TGI is greater than 100 µM.
Still for that read-out and setting: for `O=c1c2c3ccccc3[nH]c2c2cccc3c2n1CCC3` the value was greater than 100 µM.
In turn, `COc1ccc(C2C(Cl)C(=O)N2NC(=O)c2ccc(NC(C)=O)cc2)cc1` (stereo not drawn) showed a TGI greater than 100 µM.
`c1ccc([P+](CCNCCNCC[P+](c2ccccc2)(c2ccccc2)c2ccccc2)(c2ccccc2)c2ccccc2)cc1`: the TGI was greater than 100 µM.
On to `COc1ccc(-c2c(C#N)c(N)n(C3OC(CO)C(O)C(O)C3O)c(=S)c2C#N)cc1` (stereo not drawn), for which the total growth inhibition concentration (TGI) was greater than 100 µM.
`c1ccc(C[P+]2(c3ccccc3)c3ccccc3-c3ccccc32)cc1` gave a TGI greater than 100 µM.
The molecule `Cc1c(Cl)cccc1NC(=O)C(=O)C1C(=O)CC(C)(C)CC1=O` returned a TGI greater than 100 µM.
`O=C1O[C@@H](c2ccccc2)C[C@@H]1CN1CCOCC1` showed a TGI greater than 100 µM.
`COc1ccc2nc(-c3ccc(OCc4ccccc4)cc3)ccc2c1` displayed a TGI greater than 100 µM.
Still for that read-out and setting: to `C/C(=N\NC(=S)NC(C)C)c1nc2ncccc2[nH]1` belongs greater than 100 µM.
For `Cc1c(/C=N\NC(=S)N2CCN(C(=S)N/N=C\c3c(C)n(C)n(-c4ccccc4)c3=O)CC2)c(=O)n(-c2ccccc2)n1C`, the total growth inhibition concentration (TGI) is greater than 100 µM.
Regarding `CCN(CC)CCn1c2cc3c(cc2c(=O)c2cccnc21)OCCO3`, the total growth inhibition concentration (TGI) was greater than 10 µM.
